Reference: PubChem BioAssay (NCI)
“And” between values parts separate entries of the source, which are not always exact repeats. Identical values can stand only once.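 Where inhibition never reached the appropriate level, the endpoint shown equals the highest concentration tested. Otherwise, values were interpolated linearly from a five-concentration, 48-hour dose response in 96-well plates. At the GI50, growth is halved. Definition used: TGI = concentration required for complete inhibition of growth.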

Columns and labels:
Experiment in all cases: inhibition of tumour cell growth, NCI panel, 48 h
SF-268 CNS = tested on: SF-268 CNS
SR leukemia = tested on: SR leukemia
HCT-15 colon = tested on: HCT-15 colon
EKVX NSCLC = tested on: EKVX NSCLC
A549 NSCLC = tested on: A549 NSCLC
OVCAR-4 ovarian = tested on: OVCAR-4 ovarian
OVCAR-3 ovarian = tested on: OVCAR-3 ovarian
MALME-3M melanoma = tested on: MALME-3M melanoma
T-47D breast = tested on: T-47D breast
MDA-MB-231 breast = tested on: MDA-MB-231 breast

Row | Compound | TGI (SF-268 CNS) [µM] | TGI (SR leukemia) [µM] | TGI (HCT-15 colon) [µM] | TGI (EKVX NSCLC) [µM] | TGI (A549 NSCLC) [µM] | TGI (OVCAR-4 ovarian) [µM] | TGI (OVCAR-3 ovarian) [µM] | TGI (MALME-3M melanoma) [µM] | GI50 (SF-268 CNS) [µM] | GI50 (HCT-15 colon) [µM] | GI50 (EKVX NSCLC) [µM] | GI50 (MALME-3M melanoma) [µM] | GI50 (A549 NSCLC) [µM] | GI50 (OVCAR-4 ovarian) [µM] | GI50 (T-47D breast) [µM] | TGI (MDA-MB-231 breast) | GI50 (OVCAR-3 ovarian) [µM] | TGI (T-47D breast) [µM] | GI50 (MDA-MB-231 breast) [µM] | GI50 (SR leukemia) [µM]
1 | C/C(=N\NS(=O)(=O)c1c(C)cc(C)cc1C)c1ccc[n+]([O-])n1 | 53.7 | 57.7 | 28.5 | 26 | > 100 | 44.6 | 25.3 |  |  |  |  |  |  |  |  |  |  |  |  | 
2 | COc1cc(/C=C2\Cc3ccccc3C2=O)cc(OC)c1OC | > 100 |  | > 100 | > 100 | > 100 | > 100 | > 100 | > 100 |  |  |  |  |  |  |  |  |  |  |  | 
3 | O=C(CC1SC(=Nc2ccccc2Cl)NC1=O)Nc1ccc(Cl)cc1 (configuration not stated) | > 100 | 69.9 | 30.8 | > 100 | > 100 | > 100 |  | > 100 |  |  |  |  |  |  |  |  |  |  |  | 
4 | C/C=C(\C)C(=O)N1c2ccccc2CC1c1c(C)[nH]c2ccccc12 (configuration not stated) |  | > 100 | > 100 | > 100 | > 100 | > 100 | > 100 | > 100 |  |  |  |  |  |  |  |  |  |  |  | 
5 | CSC1SCC2C(=O)N(C)C(C(C)C)C(=O)OCC(NC(=O)c3cnc4ccccc4n3)C(=O)NC(C)C(=O)N(C)C1C(=O)N(C)C(C(C)C)C(=O)OCC(NC(=O)c1cnc3ccccc3n1)C(=O)NC(C)C(=O)N2C (configuration not stated) |  |  |  |  |  |  |  |  | < 0.001 | 0.00322 | < 0.001 | < 0.001 | < 0.001 | < 0.001 | < 0.001 | 0.00192 µM and 0.00985 µM and 0.0142 µM | < 0.001 |  |  | 
6 | C#CCN(Cc1nc2cc(C(F)(F)F)ccc2nc1-c1ccccc1)c1ccc(F)cc1 | > 100 |  | > 100 | 66.2 | 60.9 | > 100 | > 100 | 53.5 | 37.9 | 29.5 | 23.1 | 17.9 | 20.4 | 33.4 | 20.8 | 56.8 µM | 29.8 | > 100 | 21.6 | 
7 | CCC(C)(C)NS(=O)(=O)c1ccccc1 |  |  | > 100 | > 100 | > 100 | > 100 | > 100 | > 100 |  |  |  |  |  |  |  |  |  |  |  | 
8 | COc1cc2c(cc1OC)-c1ncc3cc(OC)c(OC)cc3c1C2 |  | > 50 | > 50 | > 50 | > 50 | > 50 | > 50 |  |  | > 50 | > 50 |  | > 50 | > 50 | > 50 | > 50 µM | > 50 | > 50 | > 50 | 31.8
9 | CC(=O)OC1(C#N)CC2OC1C1N=NN(C(=O)OC(C)(C)C)C21 (configuration not stated) | > 100 | 57.8 | 22.5 | > 100 |  | > 31.6 | > 80.6 | > 68.2 |  |  |  |  |  |  |  |  |  |  |  | 
10 | N.N.NCCCCCN.O=C([O-])CC(=O)[O-].O=C([O-])CC(=O)[O-].[Pt+4].[Pt+4] | > 100 | > 100 | > 100 | > 100 | > 100 |  | > 100 | > 100 | 71.4 | > 100 | > 100 | > 100 | > 100 |  |  |  | > 100 |  |  | 58.6
11 | COc1c(Cl)[c]([Hg][O]C(C)=O)c(NCC(C)=O)c(OC)[c]1[Hg][O]C(C)=O | 30.8 |  |  | 65.2 | > 100 | 79.7 | 21.8 | 7.89 | 11.4 |  | 27.2 | 2.7 | 81.6 | 20 |  |  | 10.2 |  |  | 
12 | OCCCCCNc1ccnc2cc(Cl)ccc12 | > 100 | 40.8 | > 100 | > 100 | > 100 | > 100 | > 100 | > 100 |  |  |  |  |  |  |  |  |  |  |  | 
13 | Cc1nc2ccccc2c(/C=C/c2ccccc2)c1C(=O)/C=C/c1ccccc1 | 6.24 | > 100 | 4.4 | 3.28 | 6.06 |  |  | 3.24 | 2.14 | 1.56 | 1.75 | 1.76 | 2.29 |  |  | 7.37 µM |  |  | 2.3 | 1.78
14 | CCOC(=O)NC(=O)c1cn(C2OC(COC(=O)CCCCCCCCC(=O)OCC3OC(n4cc(C(=O)NC(=O)OCC)c(=O)[nH]c4=O)C4OC(C)(C)OC34)C3OC(C)(C)OC32)c(=O)[nH]c1=O (configuration not stated) | > 100 | > 100 | > 100 | > 100 | > 100 | > 100 | > 100 | > 100 |  |  |  |  |  |  |  |  |  |  |  | 
15 | O=C(Nc1ccc(N2CCNCC2)cn1)c1[nH]ncc1Nc1ncnc2sccc12 |  |  | > 100 | 13.5 | 3.45 | 3.63 | 4.38 | 3.19 |  | 8.3 | 2.91 | 1.43 | 1.66 | 1.69 |  | 3.36 µM | 2.02 |  | 1.68 | 
16 | COc1cc(OC)cc(C(=O)Cc2c(C(=O)c3ccccc3)c3ccccc3n2C(=O)c2ccccc2)c1 | > 100 | > 100 | > 100 | > 100 | > 100 | > 100 | > 100 | > 100 |  |  |  |  |  |  |  |  |  |  |  | 
17 | CCN(CC)CCOc1ccc(Cc2ccccc2)cc1 | > 100 |  | 53.9 | > 100 | > 100 | > 100 | > 100 | 43.1 | 35.3 | 15.1 | 26.4 | 17.2 | 49.8 | 33.5 | 25.5 | > 100 µM | 26.9 | > 100 | 28.2 | 
18 | CC(CCC(=O)O)c1ccc(Br)cc1 (configuration not stated) | > 100 | > 100 | > 100 | > 100 | > 100 | > 100 | > 100 | > 100 |  |  |  |  |  |  |  |  |  |  |  | 
19 | CC(C)c1cc(C(=O)[O-])c(O)c(C(C)C)c1.CC(C)c1cc(C(=O)[O-])c(O)c(C(C)C)c1.CC(C)c1cc(C(=O)[O-])c(O)c(C(C)C)c1.CC(C)c1cc(C(=O)[O-])c(O)c(C(C)C)c1.CC(C)c1cc(C(=O)[O-])c(O)c(C(C)C)c1.CC(C)c1cc(C(=O)[O-])c(O)c(C(C)C)c1.[Cu+2].[Mn+2].[Mn+2] | 82.7 |  | > 100 | > 100 | 33.8 | 47.8 | 10.4 | 28.7 | 35.5 | 39.3 | 23.3 | 15.1 | 11.1 | 16.1 |  |  | 2.87 |  |  | 
